Measured values as given in US20150274719A1, “AMINO-SUBSTITUTED IMIDAZO[1,2-A]PYRIDINECARBOXAMIDES AND THEIR USE” (BAYER PHARMA AKTIENGESELLSCHAFT, priority 2012, published 2015).
Where a name gives a salt, the structure may show the parent alone.

Molecular target: T1, recombinant guanylate cyclase reporter cell line (Rattus norvegicus, UniProt P19686+P20595)
T1 construct: expressed in transfected cells; host or cells: recombinant reporter cell line
T1 sequence (P19686 1-690): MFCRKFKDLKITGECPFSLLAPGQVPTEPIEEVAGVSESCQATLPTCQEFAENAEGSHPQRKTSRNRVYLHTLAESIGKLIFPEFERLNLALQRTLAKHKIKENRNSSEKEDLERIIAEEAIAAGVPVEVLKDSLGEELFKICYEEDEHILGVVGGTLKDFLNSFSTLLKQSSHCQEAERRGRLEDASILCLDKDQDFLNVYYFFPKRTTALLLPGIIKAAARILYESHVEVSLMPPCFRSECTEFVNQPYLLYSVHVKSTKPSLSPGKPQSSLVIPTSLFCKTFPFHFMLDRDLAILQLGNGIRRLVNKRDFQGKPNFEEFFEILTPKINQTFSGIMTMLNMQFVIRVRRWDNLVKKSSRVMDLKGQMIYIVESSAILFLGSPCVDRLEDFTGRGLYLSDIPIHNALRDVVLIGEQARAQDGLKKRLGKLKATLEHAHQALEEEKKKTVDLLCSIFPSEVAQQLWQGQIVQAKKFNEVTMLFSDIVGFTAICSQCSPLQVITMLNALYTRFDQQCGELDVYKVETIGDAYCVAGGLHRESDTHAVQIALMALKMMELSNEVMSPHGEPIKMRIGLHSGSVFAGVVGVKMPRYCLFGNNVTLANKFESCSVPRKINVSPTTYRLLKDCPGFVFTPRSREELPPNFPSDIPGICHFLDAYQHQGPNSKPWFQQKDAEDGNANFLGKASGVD
T1 sequence (P20595 1-619): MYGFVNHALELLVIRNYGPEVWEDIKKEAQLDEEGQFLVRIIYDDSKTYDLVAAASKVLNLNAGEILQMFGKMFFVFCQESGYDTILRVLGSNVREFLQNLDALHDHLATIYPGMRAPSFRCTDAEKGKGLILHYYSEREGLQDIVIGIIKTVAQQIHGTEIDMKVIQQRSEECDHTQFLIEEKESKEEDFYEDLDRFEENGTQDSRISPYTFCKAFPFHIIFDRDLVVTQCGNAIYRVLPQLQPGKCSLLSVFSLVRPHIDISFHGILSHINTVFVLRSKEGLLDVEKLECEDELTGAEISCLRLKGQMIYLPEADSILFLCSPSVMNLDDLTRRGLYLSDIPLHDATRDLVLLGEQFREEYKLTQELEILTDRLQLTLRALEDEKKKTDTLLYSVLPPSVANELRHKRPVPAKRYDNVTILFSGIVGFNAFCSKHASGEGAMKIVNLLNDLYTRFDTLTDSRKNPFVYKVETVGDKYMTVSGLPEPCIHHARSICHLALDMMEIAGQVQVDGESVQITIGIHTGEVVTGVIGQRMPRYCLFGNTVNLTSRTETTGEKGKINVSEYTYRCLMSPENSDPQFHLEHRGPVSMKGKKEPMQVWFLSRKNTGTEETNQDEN
Test: Action on recombinant guanylate cyclase reporter cell line
Type: cell-based
Conditions: in some cases mean values from individual determinations
Outline: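 MEC values, meaning the lowest concentration producing a detectable response, were taken from a recombinant cyclase reporter cell assay. Where repeated, individual determinations were averaged.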

MEC (minimal effective concentration) [µM] | SMILES
0.10 | CC=CCC(N)CNC(=O)c1c(C)nc2c(OCc3c(F)cccc3F)cc(C)cn12 (racemic) [Example 406, rac-N-[(4E/Z)-2-aminohex-4-en-1-yl]-8-[(2,6-difluorobenzyl)oxy]-2,6-dimethylimidazo[1,2-a]pyridine-3-carboxamide]
0.10 | CSCCC(N)CNC(=O)c1c(C)nc2c(OCc3c(F)cccc3F)cc(C)cn12 (racemic) [Example 412, rac-N-[2-amino-4-(methylsulfanyl)butyl]-8-[(2,6-difluorobenzyl)oxy]-2,6-dimethylimidazo[1,2-a]pyridine-3-carboxamide]
5.5 | Cc1cc(OCc2c(F)cccc2F)c2nc(C)c(C(=O)NCC(N)CCS(C)(=O)=O)n2c1 (racemic) [Example 413, rac-N-[2-amino-4-(methylsulfonyl)butyl]-8-[(2,6-difluorobenzyl)oxy]-2,6-dimethylimidazo[1,2-a]pyridine-3-carboxamide]
0.30 | Cc1cc(OCc2c(F)cccc2F)c2nc(C)c(C(=O)NCC3CS(=O)(=O)CCN3)n2c1 (racemic) [Example 414, rac-8-[(2,6-difluorobenzyl)oxy]-N-[(1,1-dioxidothiomorpholin-3-yl)methyl]-2,6-dimethylimidazo[1,2-a]pyridine-3-carboxamide]
5.5 | Cc1cc(OCc2c(F)cccc2F)c2nc(C)c(C(=O)NCC(N)c3csc(C)n3)n2c1 (racemic) [Example 415, rac-N-[2-amino-2-(2-methyl-1,3-thiazol-4-yl)ethyl]-8-[(2,6-difluorobenzyl)oxy]-2,6-dimethylimidazo[1,2-a]pyridine-3-carboxamide triformate]
1.00 | Cc1cc(OCc2c(F)cccc2F)c2nc(C)c(C(=O)NC(C#N)CN)n2c1 (racemic) [Example 416, rac-N-(2-amino-1-cyanoethyl)-8-[(2,6-difluorobenzyl)oxy]-2,6-dimethylimidazo[1,2-a]pyridine-3-carboxamide]
1.66 | Cc1nc2c(OCc3c(F)cccc3F)cccn2c1C(=O)NC(C)CN (single isomer, unassigned) [Example 19, ent-N-(1-Aminopropan-2-yl)-8-[(2,6-difluorobenzyl)oxy]-2-methylimidazo[1,2-a]pyridine-3-carboxamide]
1.00 | Cc1nc2c(OCc3c(F)cccc3F)cccn2c1C(=O)NC(C)CN (single isomer, unassigned) [Example 20, ent-N-(1-Aminopropan-2-yl)-8-[(2,6-difluorobenzyl)oxy]-2-methylimidazo[1,2-a]pyridine-3-carboxamide]
0.20 | Cc1nc2c(OCc3c(F)cccc3F)cc(Cl)cn2c1C(=O)NCC(C)N (single isomer, unassigned) [Example 29, ent-N-(2-Aminopropyl)-6-chloro-8-[(2,6-difluorobenzyl)oxy]-2-methylimidazo[1,2-a]pyridine-3-carboxamide]
0.30 | Cc1nc2c(OCc3c(F)cccc3F)cc(Cl)cn2c1C(=O)NCC(C)N (single isomer, unassigned) [Example 30, ent-N-(2-Aminopropyl)-6-chloro-8-[(2,6-difluorobenzyl)oxy]-2-methylimidazo[1,2-a]pyridine-3-carboxamide]
1.00 | CCOCC(CN)NC(=O)c1c(C)nc2c(OCc3c(F)cccc3F)cccn12 (single isomer, unassigned) [Example 56, ent-N-(1-amino-3-ethoxypropan-2-yl)-8-[(2,6-difluorobenzyl)oxy]-2-methylimidazo[1,2-a]-pyridine-3-carboxamide]
0.30 | CCOCC(CN)NC(=O)c1c(C)nc2c(OCc3c(F)cccc3F)cc(Cl)cn12 (single isomer, unassigned) [Example 57, ent-N-(1-amino-3-ethoxypropan-2-yl)-6-chloro-8-[(2,6-difluorobenzyl)oxy]-2-methylimidazo[1,2-a]-pyridine-3-carboxamide]
0.30 | Cc1nc2c(OCc3c(F)cccc3F)cccn2c1C(=O)NC(CN)COC(C)C (single isomer, unassigned) [Example 93, ent-N-(1-Amino-3-isopropoxypropan-2-yl)-8-[(2,6-difluorobenzyl)oxy]-2-methylimidazo[1,2-a]-pyridine-3-carboxamide]
1.00 | Cc1nc2c(OCc3c(F)cccc3F)cccn2c1C(=O)NCC(C)CN (single isomer, unassigned) [Example 95, ent-N-(3-Amino-2-methylpropyl)-8-[(2,6-difluorobenzyl)oxy]-2-methylimidazo[1,2-a]pyridine-3-carboxamide dihydrochloride]
1.00 | Cc1nc2c(OCc3c(F)cccc3F)cccn2c1C(=O)NCC(C)CN (single isomer, unassigned) [Example 96, ent-N-(3-Amino-2-methylpropyl)-8-[(2,6-difluorobenzyl)oxy]-2-methylimidazo[1,2-a]pyridine-3-carboxamide dihydrochloride]
1.00 | COCC(CN)NC(=O)c1c(C)nc2c(OCc3c(F)cccc3F)cccn12 (single isomer, unassigned) [Example 122, ent-N-(1-Amino-3-methoxypropan-2-yl)-8-[(2,6-difluorobenzyl)oxy]-2-methylimidazo[1,2-a]-pyridine-3-carboxamide ditrifluoroacetate]
3.00 | COCC(CN)NC(=O)c1c(C)nc2c(OCc3c(F)cccc3F)cccn12 (single isomer, unassigned) [Example 123, ent-N-(1-Amino-3-methoxypropan-2-yl)-8-[(2,6-difluorobenzyl)oxy]-2-methylimidazo[1,2-a]-pyridine-3-carboxamide ditrifluoroacetate]
0.30 | Cc1nc2c(OCc3c(F)cccc3F)cccn2c1C(=O)NCC(N)CC(F)(F)F (single isomer, unassigned) [Example 126, ent-N-(2-Amino-4,4,4-trifluorobutyl)-8-[(2,6-difluorobenzyl)oxy]-2-methylimidazo[1,2-a]pyridine-3-carboxamide]
1.00 | Cc1nc2c(OCc3c(F)cccc3F)cccn2c1C(=O)NCC(N)CC(F)(F)F (single isomer, unassigned) [Example 127, ent-N-(2-Amino-4,4,4-trifluorobutyl)-8-[(2,6-difluorobenzyl)oxy]-2-methylimidazo[1,2-a]pyridine-3-carboxamide]
0.10 | Cc1cc(OCc2c(F)cccc2F)c2nc(C)c(C(=O)NCC(N)CC(F)(F)F)n2c1 (single isomer, unassigned) [Example 128, ent-N-(2-Amino-4,4,4-trifluorobutyl)-8-[(2,6-difluorobenzyl)oxy]-2,6-dimethylimidazo[1,2-a]-pyridine-3-carboxamide]
0.10 | Cc1cc(OCc2c(F)cccc2F)c2nc(C)c(C(=O)NCC(N)CC(F)(F)F)n2c1 (single isomer, unassigned) [Example 129, ent-N-(2-Amino-4,4,4-trifluorobutyl)-8-[(2,6-difluorobenzyl)oxy]-2,6-dimethylimidazo[1,2-a]-pyridine-3-carboxamide]
0.30 | Cc1nc2c(OCc3c(F)cccc3F)cccn2c1C(=O)NC(C)[C@H](C)N (single isomer, unassigned) [Example 174]
1.00 | Cc1nc2c(OCc3c(F)cccc3F)cccn2c1C(=O)NC(C)[C@H](C)N (single isomer, unassigned) [Example 175]
1.00 | Cc1nc2c(OCc3c(F)cccc3F)cccn2c1C(=O)NC(C)[C@@H](C)N (single isomer, unassigned) [Example 176]
1.00 | Cc1nc2c(OCc3c(F)cccc3F)cccn2c1C(=O)NC(C)[C@@H](C)N (single isomer, unassigned) [Example 177]
